These results are taken from US20230000840A1, “THERAPEUTIC AGENTS AND PROPHYLACTIC AGENTS FOR FUNCTIONAL GASTROINTESTINAL DISORDERS AND XEROSTOMIA” (NIPPON SHINYAKU CO., LTD., priority 2019, published 2023).

One experiment has as its system anesthetized mice. In words: Measurement of secreted saliva amount in anesthetized mice. Format: in vivo, mouse. The following applies: urethane-anesthetized male ICR mice; 10 mg/kg intravenous; cotton balls weighed after 30 minutes; average ± standard error. The method, then:
8-week-aged male ICR mice (Japan SLC, Inc.) were anesthetized with urethane (1650 mg/kg, intraperitoneal administration). After about 1 hour, a test compound or a vehicle (physiological saline containing 10% DMSO (OTSUKA NORMAL SALINE, manufactured by Otsuka Pharmaceutical Factory, Inc.)) was intravenously administered at 10 mg/kg, and immediately after that, one or two absorbent cotton wool balls ([…]) (Roller Cotton (cotton ball) SS, manufactured by Nichiei Co., Ltd.) were inserted into the mouth. The difference between the weight of the absorbent cotton balls after 30 minutes from insertion and the weight of the absorbent cotton balls before insertion was defined as an amount of saliva secreted. At this time, the test compound was dissolved in DMSO and then diluted 10-fold with physiological saline. The administration volumes of the test compound and the vehicle were each set to 5 mL/kg. The experiment was carried out in three parts. The number of cases in each administration group was 3-4.

The test system of another experiment is ileum. Description: Magnus test: carbachol-induced contraction of isolated rat ileum. Conditions: test compound 10 μM, then carbachol 50 nM, 100% = carbachol 1000 nM, 0% = DMSO + carbachol 50 nM, average ± standard error, read-out: Enhancement ratio P of the contraction force. The method, then: 9- to 15-week-aged SD female rats (Japan SLC, Inc.) were exsanguinated to death by amputation of carotid artery under isoflurane anesthesia. Then, the ileum was removed from each rat, and cut to a length of 2 cm while excising the mesentery and connective tissue, to prepare an intestinal sample. In a Magnus tank, this sample was immersed and suspended in 20 mL of a Krebs solution at 37° C. (118 mM NaCl, 4.7 mM KCl, 2.5 mM CaCl2, 1.2 mM MgSO4, 1.2 mM KH2PO4, 11 mM D-glucose, 20 mM NaHCO3) aerated with a mixed gas of 95% O2 and 5% CO2. Then, a load of 1 g was applied to the sample to stabilize the tension.
One end of the sample was connected to an isotonic transducer (IT-10, Medical Agent), and tension (contraction force) data was imported to a personal computer via Power Lab (registered trademark) (A&D Instruments Limited). Carbachol (Carbamylcholine Chloride, Cat. No. 036-09841, manufactured by FUJIFILM Wako Pure Chemical Industries, Ltd.) was added to the Krebs solution in the Magnus tank such that the final concentration thereof was 1000 nM, and contraction of the sample was checked. A contraction force Tb of the sample at this time was defined as 100%. Then, the Magnus tank was washed with a Krebs solution three times to wash away carbachol, and the Magnus tank was finally filled with 20 mL of a Krebs solution.
Next, dimethyl sulfoxide (DMSO, Cat. No. 13445-74, manufactured by NACALAI TESQUE, INC.) was added to the Krebs solution in the Magnus tank, then carbachol was added to the Krebs solution in the Magnus tank such that the final concentration thereof was 50 nM, and contraction of the sample was checked. A contraction force Ta of the sample at this time was defined as 0%. Then, the Magnus tank was washed with a Krebs solution three times to wash away carbachol and DMSO, and the Magnus tank was finally filled with 20 mL of a Krebs solution. Next, a test compound dissolved in DMSO was added to the Krebs solution in the Magnus tank such that the final concentration thereof was 10 μM, then carbachol was added to the Krebs solution in the Magnus tank such that the final concentration thereof was 50 nM, and contraction of the sample was checked.
As described above, the contraction force Tb of the sample when carbachol was added at a final concentration of 1000 nM was defined as 100%, and the contraction force Ta of the sample when carbachol was added at a final concentration of 50 nM under the condition that DMSO was added first instead of the test compound was defined as 0%. The contraction force of the sample when carbachol was added at a final concentration of 50 nM under the condition that the test compound was added first at a final concentration of 10 μM was denoted by Tc, and an enhancement ratio P (unit: %) of the contraction force by the test compound was calculated according to the following equation (2). The increase in contraction force by the test compound was evaluated on the basis of the enhancement ratio P. The number of cases in each addition group was 3 to 7.
P=100×(Tc−Ta)/(Tb−Ta) (2)

SMILES strings stand for the structures.

For `COCC1(CN(C)c2cc(-c3cc(C4CC4)nc(C(F)(F)F)c3)nc3nc(-c4cnc(N5CCN(CCC(=O)[O-])C[C@H]5C)cn4)[nH]c23)CCCCC1.[Na+]` [Example 14, Sodium 3-[(3R)-4-(5-{5-[2-cyclopropyl-6-(trifluoromethyl)pyridin-4-yl]-7-[{[1-(methoxymethyl)cyclohexyl]methyl}(methyl)amino]-1H-imidazo[4,5-b]pyridin-2-yl}pyrazin-2-yl)-3-methylpiperazin-1-yl]propanoate], the “Amount of saliva secreted” value in the experiment with anesthetized mice was 142.70 ± 23.51 mg. Also, the activation at 10 µM with ileum was determined as 65.1 ± 15%.
For the compound `COCC1(CN(C)c2cc(-c3cnc(C4CC4)c(C(F)(F)F)c3)nc3nc(-c4cnc(N5CCN(CCC(=O)[O-])C[C@H]5C)cn4)[nH]c23)CCCC1.[Na+]` [Example 15, Sodium 3-[(3R)-4-(5-{5-[6-cyclopropyl-5-(trifluoromethyl)pyridin-3-yl]-7-[{[1-(methoxymethyl)cyclopentyl]methyl}(methyl)amino]-1H-imidazo[4,5-b]pyridin-2-yl}pyrazin-2-yl)-3-methylpiperazin-1-yl]propanoate], the “Amount of saliva secreted” value with anesthetized mice is given as 304.98 ± 58.25 mg. Also, in the experiment on ileum, the activation at 10 µM turned out to be 79.3 ± 12.2%.
